Calls of active or inactive are those of the source. How the calls were made is not given here.

Peptidyl-prolyl cis-trans isomerase FKBP1A (Homo sapiens), sequence (P62942 whole entry, looked up): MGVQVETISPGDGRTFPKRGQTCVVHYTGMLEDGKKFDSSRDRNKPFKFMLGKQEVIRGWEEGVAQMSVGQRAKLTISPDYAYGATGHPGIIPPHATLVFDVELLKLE

This assay has as its target Peptidyl-prolyl cis-trans isomerase FKBP1A (Homo sapiens) (UniProt P62942). In words: small-molecule binding to FKBP12 – biophysical, NMR detection (AID 608). The settings on record: purified FKBP12.
On to `CC1SC(=NC(=O)c2ccncc2)NC1=O` (configuration not stated), for which the Kd is > 4 mM (inactive).

Take `Cc1cccc(CSc2nncc(=O)[nH]2)c1`: the Kd was > 4 mM (inactive).

On to `NC(=O)c1cc2c(n(-c3ccccc3)c1=O)CCCC2=O`, for which the Kd was > 4 mM (inactive).

Regarding `CCCCCCCCCCCCCCC(C(=O)OC)C(O)(CC(=O)OC)C(=O)OC` (configuration not stated), the Kd is > 4 mM (inactive).

Consider `CNC(=O)C(=O)Nc1c(C)cccc1C`, for which the Kd was > 4 mM (inactive).

Turning to `Cc1cc(C)cc(C(=O)N2CCC(C(N)=O)CC2)c1`, the Kd is > 4 mM (inactive).

As to `COc1cc(O)c2c(=O)cc(-c3ccc(OC)c(-c4c(O)cc(O)c5c(=O)cc(-c6ccc(O)cc6)oc45)c3)oc2c1`, the Kd was > 4 mM (inactive).

Regarding `Cc1c(F)cccc1NS(=O)(=O)c1ccccc1C#N`, the Kd was > 4 mM (inactive).

Regarding `O=C(O)c1ccc(NC(=O)c2cccs2)cc1`, the Kd is > 4 mM (inactive).

In the case of `CC(=O)OC/C=C(\C)CC/C=C(\C)CC/C=C(\C)CC/C=C(\C)CC/C=C(\C)CC/C=C(\C)CC/C=C(\C)CC/C=C(\C)CCC=C(C)C`, the Kd was > 4 mM (inactive).

In the case of `CC(=O)Nc1ccc(S(=O)(=O)NC(N)=O)cc1`, the Kd was > 4 mM (inactive).

As for `O=C(c1ccccc1)c1ccccc1C(=O)N1CCCC1`, the Kd was > 4 mM (inactive).

Turning to `CC(=O)Nc1nc(C)c(C(C)=O)s1`, the Kd is > 4 mM (inactive).

Regarding `O=C1CNC(=O)/C1=C/c1ccc(O)cc1`, the Kd was > 4 mM (inactive).

As for `O=c1[nH]cc(NC(=S)N2CCOCC2)c(=O)[nH]1`, the Kd was > 4 mM (inactive).

Regarding `C[C@H]1C[C@@H](O)[C@]2(O)[C@@]13CC(=O)OC[C@@]2(C)[C@](C)(O)C(=O)C3`, the Kd was > 4 mM (inactive).

As to `Cc1ccc(NC(=O)C2CCN(S(C)(=O)=O)CC2)cc1`, the Kd is > 4 mM (inactive).

Regarding `CCN1CCn2c1nc(N1CCOCC1)nc2=O`, the Kd was > 4 mM (inactive).

Regarding `O=C1c2cccc3cc(S(=O)(=O)O)cc(c23)C(=O)N1O`, the Kd is > 4 mM (inactive).

For the molecule `O=C(Nc1ccccc1C(F)(F)F)c1cnccn1`, the Kd is > 4 mM (inactive).

With `CC(=O)Nc1cccc(NC(=O)c2cccnc2)c1`, the Kd is > 4 mM (inactive).

Turning to `CC1(C)CC(=O)c2cnn(-c3nc4ccccc4[nH]3)c2C1`, the Kd was 0.491 mM.

Regarding `N#Cc1nc(-c2cccs2)oc1N1CCOCC1`, the Kd is > 4 mM (inactive).

On to `Cc1ccc(F)cc1NC(=O)c1ccc2c(c1)OCO2`, for which the Kd was > 4 mM (inactive).

On to `O=C(Nc1ccc2c(c1)OCO2)c1cccs1`, for which the Kd is > 4 mM (inactive).

`CC(C)(C)C(=O)Nc1nnc(SCC(N)=O)s1`: the Kd was > 4 mM (inactive).

On to `Cc1cc(=O)n(CCc2ccccc2)c(O)c1C#N`, for which the Kd was > 4 mM (inactive).

In the case of `CNC(=O)C1CCCN(S(C)(=O)=O)C1` (configuration not stated), the Kd was > 4 mM (inactive).

Regarding `CC(C)NC1CS(=O)(=O)CC1O` (configuration not stated), the Kd is > 4 mM (inactive).

Turning to `Nc1ccc(CCC(=O)O)cc1`, the Kd is > 4 mM (inactive).

Regarding `Nc1cccc(S(=O)(=O)N2CCCC2)c1`, the Kd was > 4 mM (inactive).

Take `NC(N)=Nc1nc2ccccc2o1`: the Kd is > 4 mM (inactive).

Regarding `CCOc1ccc(-c2c(=O)n(O)c3ccccc3[n+]2[O-])cc1`, the Kd was > 4 mM (inactive).

In the case of `O=c1cc(CO)oc(CN2CCCCC2)c1O`, the Kd is > 4 mM (inactive).

Turning to `NCCc1ccc(S(N)(=O)=O)cc1`, the Kd is > 4 mM (inactive).

In the case of `CCOC(=O)C1CCC(=O)c2cccn21` (configuration not stated), the Kd is > 4 mM (inactive).

On to `Cn1c(=O)c2[nH]c(Nc3ccccc3)nc2n(C)c1=O`, for which the Kd was > 4 mM (inactive).

Turning to `Cc1cc(C(=O)O)n[nH]1`, the Kd was > 4 mM (inactive).

On to `O=C(O)c1cc2ccccc2[nH]1`, for which the Kd is > 4 mM (inactive).

In the case of `Cn1c(SCC(=O)NCCO)nc2ccccc2c1=O`, the Kd was > 4 mM (inactive).

Consider `CN1C(=O)CC[C@H]1c1cccnc1`, for which the Kd is > 4 mM (inactive).

Turning to `Cc1ccc(-n2nnnc2SCC(N)=O)c(C)c1`, the Kd was > 4 mM (inactive).

For the molecule `OC12CC3CC(C1)C1(NCCS1)C(C3)C2` (configuration not stated), the Kd is > 4 mM (inactive).

Consider `O=[N+]([O-])c1ccc(/C=N/c2ncn[nH]2)cc1`, for which the Kd was > 4 mM (inactive).

In the case of `O=S(=O)(Cc1ccc(Cl)cc1)N1CCCC1`, the Kd was > 4 mM (inactive).

Consider `O=c1c(-c2cc(O)c(O)c(O)c2)coc2cc(O)c(O)c(O)c12`, for which the Kd was > 4 mM (inactive).

As to `CC(=O)Nc1cc(C(F)(F)F)ccc1N1CCOCC1`, the Kd is > 4 mM (inactive).

For the molecule `CC(=O)O[C@H]1C[C@@]2(C)[C@@H](C[C@@H](O)C3[C@]2(C)CC[C@H]2[C@H](C)[C@H](O)CC[C@]32C)/C1=C(/CCC=C(C)C)C(=O)O` (some centres not stated), the Kd was > 4 mM (inactive).

With `S=C(NCc1ccco1)NN1CCOCC1`, the Kd was > 4 mM (inactive).

Regarding `OCc1nc2ccccc2s1`, the Kd was > 4 mM (inactive).

On to `COc1cccc(NC(=O)c2ncn[nH]2)c1`, for which the Kd is > 4 mM (inactive).

In the case of `Cc1cccc(C)c1NC(=O)CN1CCOCC1`, the Kd was > 4 mM (inactive).

For the molecule `Nc1c(/C=C2\C=Nc3ccccc32)c(=O)nc2scnn12`, the Kd was > 4 mM (inactive).

With `CC(=O)NN1C(=O)/C(=C\c2ccc(O)cc2)SC1=S`, the Kd was > 4 mM (inactive).

As for `Cc1ccc(NS(=O)(=O)c2ccc(OCC(=O)N3CCOCC3)cc2)cc1`, the Kd result is “inactive”.

On to `COC(=O)CC1NC2CCCCC2NC1=O` (configuration not stated), for which the Kd was > 4 mM (inactive).

With `NC(=O)CSc1ccc(-c2ccccc2)nn1`, the Kd was > 4 mM (inactive).

Regarding `CC(C)CCn1cnc2c1c(=O)n(C)c(=O)n2C`, the Kd is > 4 mM (inactive).

Regarding `O=C(O)Cc1c[nH]c2ccccc12`, the Kd was > 4 mM (inactive).

`O=S(=O)(CCN1CCCC1)c1ccccc1`: the Kd was > 4 mM (inactive).

`CC1CC2(NC(=O)NC2=O)C(C)CN1C` (configuration not stated): the Kd is > 4 mM (inactive).

Consider `CC(=O)NC(=S)Nc1nc2ccccc2n1C(C)=O`, for which the Kd is > 4 mM (inactive).

Regarding `O=C(Nc1ccc2c(c1)OCCO2)c1c(F)cccc1F`, the Kd is > 4 mM (inactive).

Regarding `CC(=O)N1CCc2ccccc2C1CC(=O)O` (configuration not stated), the Kd is > 4 mM (inactive).

`O=C(O)/C=C/C(=O)Nc1ccccc1C(F)(F)F`: the Kd is > 4 mM (inactive).

`CCn1c(-c2ccccc2)n[nH]c1=S`: the Kd is > 4 mM (inactive).

For `CC1CN(C(=O)CSc2ccccc2)CC(C)O1` (configuration not stated), the Kd result was “inactive”.

As to `CC1(C)C(=O)N(O)C(C)(C)C(=O)N1O`, the Kd was > 4 mM (inactive).

For `O=C1CCN(c2ccccc2)N1`, the Kd was > 4 mM (inactive).

Regarding `c1ccc(CNc2ncnc3nc[nH]c23)nc1`, the Kd is > 4 mM (inactive).

On to `O=c1c2c(nc3nc(COc4ccccc4)[nH]n13)CCC2`, for which the Kd is > 4 mM (inactive).

Turning to `COC(=O)NNc1ncnc(N)c1[N+](=O)[O-]`, the Kd is > 4 mM (inactive).

With `Cc1occc1C(=O)NC1CCN(C)CC1`, the Kd is > 4 mM (inactive).

For the molecule `O=C(NC1CCS(=O)(=O)C1)c1ccccc1` (configuration not stated), the Kd was > 4 mM (inactive).

Consider `CSc1cc(C)[nH]c(=O)n1`, for which the Kd was > 4 mM (inactive).

As for `O=C(NCc1ccco1)c1ccc(=O)[nH]c1`, the Kd was > 4 mM (inactive).

For `COc1ccc2nc(NC(=O)c3cnccn3)sc2c1`, the Kd is > 4 mM (inactive).

In the case of `Cc1ccc2c(c1)=C(c1sc(N)nc1O)C(=O)N=2`, the Kd is > 4 mM (inactive).

Take `NC1=NC(=O)C(Cc2ccccc2)S1` (configuration not stated): the Kd is > 4 mM (inactive).

In the case of `NC1=NC(=O)C(Cc2cccc([N+](=O)[O-])c2)S1` (configuration not stated), the Kd was > 4 mM (inactive).

As for `O=c1c2ccccc2nc2n1CCS2`, the Kd was > 4 mM (inactive).

With `CNC(=S)NCCN1CCOCC1`, the Kd was > 4 mM (inactive).

For the molecule `COc1ccc([C@H]2COc3c(ccc(O)c3OC)C2)c(OC)c1O`, the Kd is > 4 mM (inactive).

As for `CN1C(=O)/C(=C/c2ccccc2O)NC1=S`, the Kd was > 4 mM (inactive).

For the molecule `O=C(O)c1cccnc1`, the Kd was > 4 mM (inactive).

Turning to `Cc1sc2nc(SCC(=O)N(C)C)[nH]c(=O)c2c1C`, the Kd is > 4 mM (inactive).

For the molecule `Cc1ncc(C[n+]2csc3ccccc32)c(N)n1`, the Kd is > 4 mM (inactive).

Take `COc1ccccc1NC(=O)C1CCC(=O)N1` (configuration not stated): the Kd is > 4 mM (inactive).

As to `O=C(OCc1c(F)cccc1Cl)c1cnccn1`, the Kd was > 4 mM (inactive).

Regarding `O=C(COc1ccc(S(=O)(=O)Nc2cccc(C(F)(F)F)c2)cc1)N1CCOCC1`, the Kd entry is “inactive”.

Regarding `CC(=O)Oc1c2c(c3c(c1CC=C(C)C)O[C@]14C(=C[C@@H]5CC1C(C)(C)OC4(C/C=C(\C)C(=O)O)C5=O)C3=O)OC(C)(CCC=C(C)C)C=C2` (some centres not stated), the Kd was > 4 mM (inactive).

With `NC(=O)N1CCc2ccccc21`, the Kd was > 4 mM (inactive).

On to `Nc1cccc(C(=O)Nc2ccc(N)cc2Cl)c1`, for which the Kd is > 4 mM (inactive).

Take `COc1cc2occc2c2oc(=O)ccc12`: the Kd was > 4 mM (inactive).

For the molecule `NC(=O)CSc1nnc(-c2ccncc2)o1`, the Kd is > 4 mM (inactive).

Consider `NC(=O)C1CCN(Cc2ccccc2)CC1`, for which the Kd is > 4 mM (inactive).

On to `COc1ccc(NC(=O)N2CCCCC2)cc1`, for which the Kd is > 4 mM (inactive).

For the molecule `CCOC(=O)C1CCN(c2ncnc3nc[nH]c23)CC1`, the Kd was > 4 mM (inactive).

Consider `COc1cccc(-c2csc(NC(C)=O)n2)c1`, for which the Kd is > 4 mM (inactive).

Turning to `Cc1nnc(N2CCc3ccccc3C2)[nH]c1=O`, the Kd was > 4 mM (inactive).

`N#CC(O[C@@H]1O[C@H](CO[C@@H]2O[C@H](CO)[C@@H](O)[C@H](O)[C@H]2O)[C@@H](O)[C@H](O)[C@H]1O)c1ccccc1` (some centres not stated): the Kd is > 4 mM (inactive).

`Cc1ccccc1NC(=O)CC1SC(N)=NC1=O` (configuration not stated): the Kd is > 4 mM (inactive).

Source of the values: PubChem BioAssay AID608 (Sanford-Burnham Center for Chemical Genomics, 2007).
